# Measured values published in patent US20260297085A1, “1 H-PYRROLO[2,3-B]PYRIDIN-4-YL]-2-OXOPYRROLIDINE-3-CARBONITRILE DERIVATIVES AS TYROSINE KINASE 2 (TYK2) INHIBITORS FOR THE TREATMENT OF INFLAMMATORY DISEASES” (BIOGEN MA INC., priority 2023, published 2026).
# Counter-ions that a name gives are not always drawn.
# Columns and labels:
# [1] = molecular target: T1, human JAK1 kinase domain (JH1) (Homo sapiens, UniProt P23458); experiment: JH1 biochemical assay for JAK1 (ADP-Glo kinase assay, recombinant JH1 catalytic domain, JAK3-342 peptide, 35 μM ATP)
# T1 construct: recombinantly generated catalytic kinase (also known as JH1) domain of human JAK1, JAK2, JAK3 and TYK2
# Description: (§1) Compounds of the disclosure were assessed for their ability to inhibit TYK2, JAK1, JAK2, and JAK3 activity. The inhibitory properties of the compounds of the disclosure described herein can be evidenced by testing in any one of the following protocols.
# (§2) The kinase activity of recombinantly generated catalytic kinase (also known as JH1) domain of human JAK1, JAK2, JAK3 and TYK2 were evaluated in a plate-based assay using the ADP-Glo™ Kinase Assay platform. Specifically, 4 nM of recombinant JAK1 kinase domain is used to phosphorylate 50 μM of a JAK3-342 (sequence ALVDGYFRLTT) peptide in the presence of 35 μM ATP. Catalytic activities of recombinant JAK2, JAK3 and TYK2 kinase domain (0.2, 0.3 and 2 nM, respectively) are evaluated by the phosphorylation status of the JAK3-974 (50 μM; sequence LPLDKDYYVVR) peptide with the addition of ATP (15, 4 and 10 μM, respectively). The reactions proceed for 100 minutes and the catalytic activity is quantified by first depleting the unused ATP, converting the hydrolyzed ADP into ATP to generate luminescence in a luciferase reaction; which is the basis of the ADP-Glo platform. Compounds are tested at either 10 μM or 1 μM top concentration, 11 points of 3-fold dilution. The data is normalized and the percent activity versus log concentration of compound is fitted with a 4-parameter logistic model to generate a curve and an IC50 value.
# [2] = molecular target: T2, human JAK3 kinase domain (JH1) (Homo sapiens, UniProt P52333); experiment: JH1 biochemical assay for JAK3 (ADP-Glo kinase assay, recombinant JH1 catalytic domain, JAK3-974 peptide, 4 μM ATP)
# T2 construct: recombinantly generated catalytic kinase (also known as JH1) domain of human JAK1, JAK2, JAK3 and TYK2
# Description: as §1, §2
# [3] = molecular target: T3, human JAK2 kinase domain (JH1) (Homo sapiens, UniProt O60674); experiment: JH1 biochemical assay for JAK2 (ADP-Glo kinase assay, recombinant JH1 catalytic domain, JAK3-974 peptide, 15 μM ATP)
# T3 construct: recombinantly generated catalytic kinase (also known as JH1) domain of human JAK1, JAK2, JAK3 and TYK2
# Description: as §1, §2
# [4] = molecular target: T4, human TYK2 kinase domain (JH1) (Homo sapiens, UniProt P29597); experiment: JH1 biochemical assay for TYK2 (ADP-Glo kinase assay, recombinant JH1 catalytic domain, JAK3-974 peptide, 10 μM ATP)
# T4 construct: recombinantly generated catalytic kinase (also known as JH1) domain of human JAK1, JAK2, JAK3 and TYK2
# T4 sequence (P29597 897-1176 limits assumed): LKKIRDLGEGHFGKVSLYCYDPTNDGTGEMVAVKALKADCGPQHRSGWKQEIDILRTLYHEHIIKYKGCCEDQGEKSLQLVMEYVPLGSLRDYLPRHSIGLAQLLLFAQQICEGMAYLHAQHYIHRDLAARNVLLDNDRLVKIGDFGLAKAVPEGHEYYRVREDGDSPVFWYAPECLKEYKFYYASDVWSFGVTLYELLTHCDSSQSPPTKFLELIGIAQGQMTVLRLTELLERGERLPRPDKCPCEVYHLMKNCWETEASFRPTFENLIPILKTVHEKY
# Description: as §1, §2
# T3 sequence (O60674 849-1124 limits assumed): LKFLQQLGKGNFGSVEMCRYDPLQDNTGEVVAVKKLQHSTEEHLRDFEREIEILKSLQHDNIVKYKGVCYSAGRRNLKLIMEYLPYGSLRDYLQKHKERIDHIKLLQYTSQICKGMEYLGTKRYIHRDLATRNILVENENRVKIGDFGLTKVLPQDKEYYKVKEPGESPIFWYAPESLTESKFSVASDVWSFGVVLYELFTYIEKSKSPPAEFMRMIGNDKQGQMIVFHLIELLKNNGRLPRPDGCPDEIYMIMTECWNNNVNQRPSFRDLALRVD
# T2 sequence (P52333 822-1111 limits assumed): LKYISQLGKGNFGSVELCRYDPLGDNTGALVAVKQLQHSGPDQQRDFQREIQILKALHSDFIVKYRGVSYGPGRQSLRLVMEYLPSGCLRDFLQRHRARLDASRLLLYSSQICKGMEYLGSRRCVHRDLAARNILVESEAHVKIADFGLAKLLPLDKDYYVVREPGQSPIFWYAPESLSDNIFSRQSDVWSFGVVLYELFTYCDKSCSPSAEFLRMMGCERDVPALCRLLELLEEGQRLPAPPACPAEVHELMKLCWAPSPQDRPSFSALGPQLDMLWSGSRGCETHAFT
# T1 sequence (P23458 875-1153 limits assumed): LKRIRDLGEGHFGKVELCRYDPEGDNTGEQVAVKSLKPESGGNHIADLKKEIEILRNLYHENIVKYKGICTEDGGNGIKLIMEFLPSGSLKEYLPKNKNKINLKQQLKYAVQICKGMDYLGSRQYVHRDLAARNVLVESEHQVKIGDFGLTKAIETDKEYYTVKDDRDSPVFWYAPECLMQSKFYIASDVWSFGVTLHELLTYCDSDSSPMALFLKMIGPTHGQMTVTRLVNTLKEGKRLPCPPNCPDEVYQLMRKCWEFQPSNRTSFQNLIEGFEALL
SMILES,"IC50 ([1]; JH1 kinase domain, ADP-Glo)","IC50 ([2]; JH1 kinase domain, ADP-Glo)","IC50 ([3]; JH1 kinase domain, ADP-Glo)","IC50 ([4]; JH1 kinase domain, ADP-Glo)","IC50 ([1]; JAK1 JH1, ADP-Glo)","IC50 ([2]; JAK3 JH1, ADP-Glo)","IC50 ([3]; JAK2 JH1, ADP-Glo)","IC50 ([4]; TYK2 JH1, ADP-Glo)"
"C[C@@H]1CN(c2ccnn3cc(-c4ncn(C)n4)cc23)C(=O)[C@]1(C#N)C1CC1 [Example 115, (3R,4S)-3-cyclopropyl-4-methyl-1-(6-(1-methyl-1H-1,2,4-triazol-3-yl)pyrrolo[1,2-b]pyridazin-4-yl)-2-oxopyrrolidine-3-carbonitrile trifluoroacetate]",> 10 µM,5 to 10 µM,> 10 µM,> 0.1 µM,,,,
"C[C@@H]1CN(c2cc(-c3cnn(C)c3)cc3ncnn23)C(=O)[C@]1(C#N)C1CC1 [Example 285, (3R,4S)-3-cyclopropyl-4-methyl-1-(7-(1-methyl-1H-pyrazol-4-yl)-[1,2,4]triazolo[1,5-a]pyridin-5-yl)-2-oxopyrrolidine-3-carbonitrile]",,,,,> 10 µM,> 10 µM,> 10 µM,> 0.1 µM
"Cn1cc(-c2cc3c(N4CC[C@](C#N)(C5COC5)C4=O)ccnn3c2)cn1 (single isomer, unassigned) [Example 44]",> 10 µM,> 10 µM,> 10 µM,> 0.1 µM,,,,
"C[C@@H]1CN(c2ccnn3cc(-c4nccc(O)c4C#N)cc23)C(=O)[C@]1(C#N)C1CC1 [Example 129, 2-(4-((3R,4S)-3-cyano-3-cyclopropyl-4-methyl-2-oxopyrrolidin-1-yl)pyrrolo[1,2-b]pyridazin-6-yl)-4-hydroxynicotinonitrile trifluoroacetate]",> 10 µM,> 10 µM,> 10 µM,> 0.1 µM,,,,
"C[C@@H]1CN(c2cc(-c3cnn(C(F)F)c3)cn3ncc(F)c23)C(=O)[C@]1(C#N)C1CC1 [Example 270, (3R,4S)-3-cyclopropyl-1-(6-(1-(difluoromethyl)-1H-pyrazol-4-yl)-3-fluoropyrazolo[1,5-a]pyridin-4-yl)-4-methyl-2-oxopyrrolidine-3-carbonitrile]",,,,,1 to 5 µM,1 to 5 µM,1 to 5 µM,0.02 to 0.05 µM
"C[C@@H]1CN(c2nc(-c3cnn(C)c3)cc3nccn23)C(=O)[C@]1(C#N)C1CC1 [Example 269, (3R,4S)-3-cyclopropyl-4-methyl-1-(7-(1-methyl-1H-pyrazol-4-yl)imidazo[1,2-c]pyrimidin-5-yl)-2-oxopyrrolidine-3-carbonitrile]",,,,,1 to 5 µM,1 to 5 µM,5 to 10 µM,> 0.1 µM

# Second part, the compound after the results:
"IC50 ([1]; JH1 kinase domain, ADP-Glo)","IC50 ([2]; JH1 kinase domain, ADP-Glo)","IC50 ([3]; JH1 kinase domain, ADP-Glo)","IC50 ([4]; JH1 kinase domain, ADP-Glo)","IC50 ([1]; JAK1 JH1, ADP-Glo)","IC50 ([2]; JAK3 JH1, ADP-Glo)","IC50 ([3]; JAK2 JH1, ADP-Glo)","IC50 ([4]; TYK2 JH1, ADP-Glo)",SMILES
5 to 10 µM,> 10 µM,> 10 µM,> 0.1 µM,,,,,"COc1cc(-c2cc3c(N4CC[C@](C#N)(C5CC5)C4=O)ccnn3c2)ccn1 [Example 13, (R)-3-cyclopropyl-1-(6-(2-methoxypyridin-4-yl)pyrrolo[1,2-b]pyridazin-4-yl)-2-oxopyrrolidine-3-carbonitrile]"
5 to 10 µM,5 to 10 µM,1 to 5 µM,> 0.1 µM,,,,,"CC[C@@H]1C[C@](C#N)(C2CC2)C(=O)N1c1ccnn2cc(-c3cnn(C)c3)cc12 [Example 33, (3R,5R)-3-cyclopropyl-5-ethyl-1-(6-(1-methyl-1H-pyrazol-4-yl)pyrrolo[1,2-b]pyridazin-4-yl)-2-oxopyrrolidine-3-carbonitrile]"
0.1 to 1 µM,0.1 to 1 µM,0.1 to 1 µM,0.005 to 0.02 µM,,,,,"C[C@@H]1CN(c2ccnn3cc(-c4ccc(CO)cn4)cc23)C(=O)[C@]1(C#N)C1CC1 [Example 150, (3R,4S)-3-cyclopropyl-1-(6-(5-(hydroxymethyl)pyridin-2-yl)pyrrolo[1,2-b]pyridazin-4-yl)-4-methyl-2-oxopyrrolidine-3-carbonitrile trifluoroacetate]"
1 to 5 µM,1 to 5 µM,1 to 5 µM,0.02 to 0.05 µM,,,,,"C[C@@H]1CN(c2ccnn3cc(-c4cc(C(F)(F)F)nn4C)cc23)C(=O)[C@]1(C#N)C1CC1 [Example 107, (3R,4S)-3-cyclopropyl-4-methyl-1-(6-(1-methyl-3-(trifluoromethyl)-1H-pyrazol-5-yl)pyrrolo[1,2-b]pyridazin-4-yl)-2-oxopyrrolidine-3-carbonitrile trifluoroacetate]"
5 to 10 µM,> 10 µM,5 to 10 µM,> 0.1 µM,,,,,"CC[C@H]1CN(c2ccnn3cc(-c4cnn(C)c4)cc23)C(=O)[C@]1(C#N)C1CC1 [Example 24, (3R,4R)-3-cyclopropyl-4-ethyl-1-(6-(1-methyl-1H-pyrazol-4-yl)pyrrolo[1,2-b]pyridazin-4-yl)-2-oxopyrrolidine-3-carbonitrile]"
